The assay addresses T1, PPARγ2/RXR (Homo sapiens, UniProt P37231).
T1 construct: host or cells: HEK293T, with (A8) or without (A9) co-expressed hGLP-1R
T1 sequence (P37231 1-505): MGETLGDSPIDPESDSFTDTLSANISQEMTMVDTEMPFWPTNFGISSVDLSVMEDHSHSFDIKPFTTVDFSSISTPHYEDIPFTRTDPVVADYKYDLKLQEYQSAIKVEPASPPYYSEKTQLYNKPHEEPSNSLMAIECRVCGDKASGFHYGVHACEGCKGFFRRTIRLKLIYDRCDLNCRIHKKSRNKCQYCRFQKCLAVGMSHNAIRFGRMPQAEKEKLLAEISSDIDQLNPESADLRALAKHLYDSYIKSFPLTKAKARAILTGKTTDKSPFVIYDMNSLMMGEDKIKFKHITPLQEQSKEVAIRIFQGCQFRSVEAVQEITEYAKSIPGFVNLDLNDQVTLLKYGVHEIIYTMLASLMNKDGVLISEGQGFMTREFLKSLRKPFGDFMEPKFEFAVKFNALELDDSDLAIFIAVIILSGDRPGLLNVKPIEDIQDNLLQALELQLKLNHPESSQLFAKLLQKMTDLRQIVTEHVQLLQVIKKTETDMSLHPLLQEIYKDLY
T1 sequence (P19793 1-462 partner): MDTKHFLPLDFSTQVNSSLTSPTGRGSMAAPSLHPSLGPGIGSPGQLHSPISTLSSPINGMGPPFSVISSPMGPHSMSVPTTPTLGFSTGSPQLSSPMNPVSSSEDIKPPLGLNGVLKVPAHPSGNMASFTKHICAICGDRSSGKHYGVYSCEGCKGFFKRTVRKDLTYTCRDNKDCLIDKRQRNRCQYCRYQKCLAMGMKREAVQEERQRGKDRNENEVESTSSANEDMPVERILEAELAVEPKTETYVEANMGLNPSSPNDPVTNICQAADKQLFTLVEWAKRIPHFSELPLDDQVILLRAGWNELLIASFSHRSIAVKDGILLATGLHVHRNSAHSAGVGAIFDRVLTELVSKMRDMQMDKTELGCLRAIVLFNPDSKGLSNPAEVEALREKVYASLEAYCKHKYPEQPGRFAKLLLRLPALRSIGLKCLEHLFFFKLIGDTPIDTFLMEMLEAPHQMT
Put plainly: RXR-Rluc8 / PPARγ2-YFP heterodimerization (BRET) in hGLP-1R(−) HEK293T cells. In kind it is cell-based. The settings on record: GLP-1R (-), 1μM. As for the experimental part: HEK293T cells (700,000 per well) were seeded in six-well plates and incubated to 70% confluency in DMEM (10% FBS, 1% Pen/Strep). Twenty-four hours following seeding, transient transfections were performed using Lipofectamine 2000 (catalogue no. 11668019, Invitrogen) according to the manufacturer’s protocol without including additional transformation carrier DNA.
Twenty-four hours following transfection, HEK293T cells or MIN6 cells were washed with PBS and resuspended in FluoroBrite phenol red-free complete media (catalogue no. A1896701, Life Technologies) containing 5% FBS and 2 mM of L-glutamine (catalogue no. 25030081, Life Technologies). 100,000 cells per well were plated into poly-D-lysine-coated (catalogue no. P6403, Sigma-Aldrich) 96-well white polystyrene LumiNunc plates (catalogue no. 10072151, Thermo Fisher Scientific). After 24 h, the media was replaced with PBS (catalogue no. 10010056, Gibco) containing 10 μM of coelenterazine-h (catalogue no. S2011, Promega) or 1:500 dilution of NanoGlo (catalogue no. N1110, Promega). BRET measurements were taken every 30 s–2 min using a PHERAstar FS multi-mode microplate reader. Baseline measurements were taken after an initial 5 min of incubation with coelenterazine-h or NanoGlo-containing PBS after which cells were then treated with either vehicle (PBS) or respective ligands. The resulting ligand-specific ratiometric BRET signals were normalized to vehicle producing the ‘ligand-induced BRET ratio’[37], followed by an additional normalization step to well-specific baseline readings. Ligand-induced measurements on the temporal scale is represented as the subsequent measurement after time point zero. Positive or negative incremental AUC (+iAUC/−iAUC) were calculated where noted. Each experiment was independently performed at least three times, each with at least three technical replicates for each group.
Untagged hGLP-1R was purchased from Sino Biological Inc. (catalogue no. HG13944-UT), hGLP-1R-GFP was a kind gift from D. Hodson (University of Birmingham), and hGLP-1R-Rluc8 was a kind gift from P. Sexton (Monash University, Melbourne, Australia). Gαs recruitment to the GLP-1R-GFP was quantified using mini-Gαs, a protein probe that translocates to ligand-bound Gαs-coupled G-protein coupled receptors. NES-Nluc-MiniGαs was a gift from K. Pfleger (Harry Perkins Institute of Medical Research, Nedlands, Western Australia, Australia). Intracellular cAMP was measured using the YFP-Epac-Rluc CAMYEL sensor[39]. hGLP-1R-RLUC8 internalization was quantified using the intracellular plasma membrane marker Venus-KRAS[40]. […] GLP-1R-Rluc8 lysosomal colocalization was measured using Lamp1-mNeonGreen. […] Time-dependent RXR/PPARγ heterodimerization was measured using RXR-Rluc8 and PPARγ2-YFP, both of which were kind gifts from V. Ollendorf[41].
(BRET reads energy transfer from a luciferase to a nearby fluorophore.)

For `CCO[C@@H](Cc1ccc(OCCc2ccc(OS(C)(=O)=O)cc2)cc1)C(=O)O` [tesaglitazar, (S)-2-ethoxy-3-(4-(4-((methylsulfonyl)oxy)phenethoxy)phenyl) propanoic acid], the “RXR/PPARγ Heterodimerization (AUC), +iAUC” value (from here on “RXR/PPARγ Heterodimerization”) (replicate 1) was found to be 59.69; the “RXR/PPARγ Heterodimerization” value (replicate 2) amounted to 107.20; the “RXR/PPARγ Heterodimerization” value (replicate 3) turned out to be 71.87; the “RXR/PPARγ Heterodimerization” value (replicate 4) amounted to 114.00.

Values taken from PMC9398908, “GLP-1-mediated delivery of tesaglitazar improves obesity and glucose metabolism in male mice” (Nature Metabolism, 2022).
